Assays:
gRNA of HCoV-OC43 = assay type: binding
HCoV-OC43 gRNA and sgRNA = assay type: binding

Question: With SLTM: host protein, UniProt Q9NWH9 as the substance, how does the “target (spectral count)” value (gRNA of HCoV-OC43; type g_36_m, HCoV-OC43-infected HCT-8 cells, 36 hpi, Probe I) read?
Answer: 10

Question: What about the “background (spectral count)” value (gRNA of HCoV-OC43; type g_36_m, uninfected-probe control, 36 hpi, Probe I) of the same substance?
Answer: 1

Question: And the “target (spectral count, OC43 Probe I RNP capture)” value (gRNA of HCoV-OC43; type n_48_v: 48 hours post-infection, infected cells, OC43 Probe I, unweighted spectral count)?
Answer: 11

Question: And the “background (spectral count, no-probe control)” value (gRNA of HCoV-OC43; type n_48_v: 48 hours post-infection, no-probe control on infected cells)?
Answer: 1

Question: And the “target (unweighted spectral count, OC43 Probe II capture)” value (HCoV-OC43 gRNA and sgRNA; 36 hpi, type n_36_v, tested against no-probe control, FDR<10%)?
Answer: 6

Question: What about the “target (unweighted spectral count, OC43 Probe II)” value (HCoV-OC43 gRNA and sgRNA; type n_48_v, 48 hpi, OC43 Probe II capture on infected cells) of the same substance?
Answer: 8

Question: And the “background (unweighted spectral count, no-probe control)” value (HCoV-OC43 gRNA and sgRNA; type n_48_v, 48 hpi, no-probe control on infected cells)?
Answer: 1
